Here are results for four compounds from patent publication US20130196984A1, “3-AMINO-5-PHENYL-56-DIHYDRO-2H-[1,4]OXAZINES” (Siena Biotech S.p.A., priority 2009, published 2013).

Structures can show the parent of a compound that is named as a salt.

Assay [1] addresses T1, BACE2 (Rattus norvegicus, UniProt Q6IE75).
T1 construct: endogenous cellular BACE2 in the Ins1e rat cell line; endogenous in cells; host or cells: INS-TMEM27 (INS1e-derived rat cell line with doxycycline-inducible full-length hTMEM27)
T1 sequence (Q6IE75 63-514): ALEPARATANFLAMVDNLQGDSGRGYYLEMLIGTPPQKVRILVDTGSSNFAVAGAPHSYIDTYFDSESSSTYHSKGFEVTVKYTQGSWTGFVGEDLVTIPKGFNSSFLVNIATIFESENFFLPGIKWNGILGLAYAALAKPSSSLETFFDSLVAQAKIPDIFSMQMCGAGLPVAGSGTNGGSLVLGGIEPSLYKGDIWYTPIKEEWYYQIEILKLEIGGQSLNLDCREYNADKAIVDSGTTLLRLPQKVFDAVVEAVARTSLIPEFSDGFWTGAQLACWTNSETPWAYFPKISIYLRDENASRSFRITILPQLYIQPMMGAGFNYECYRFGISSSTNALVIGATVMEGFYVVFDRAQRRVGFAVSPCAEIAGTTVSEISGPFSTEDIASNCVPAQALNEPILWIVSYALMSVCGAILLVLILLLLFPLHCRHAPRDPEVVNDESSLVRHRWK
In words: Assay for BACE inhibition by measuring cellular TMEM27 cleavage.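 Note: inhibitor added 2 h before doxycycline-induced hTMEM27 expression, supernatant collected after further 46 h, endogenous BACE2 activity read as reduced TMEM27 shedding.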 Type of assay: cell-based. The following applies: INS-TMEM27 (INS1e-derived) cells, ELISA of shed human TMEM27 in supernatant. (In general: In an ELISA, binding on a coated surface is turned into a signal by an enzyme label.)

In assay [2] the target is T2, BACE1 (Homo sapiens, UniProt P56817). In words: Assay A: binding studies using SPR based methods, immobilised BACE1.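 Note: KD from a 1:1 kinetic fit (koff/kon) of real-time association and dissociation curves, or for fast binders from end-of-association equilibrium responses plotted against log concentration.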 Further details: 6his-tagged full length BACE 1 expressed in SF9 cells; 6His; made in house; host or cells: SF9 insect cells. The conditions noted are these: CM5 chip, immobilised 6his-tagged full length BACE 1, acetate buffer pH 4.6, 4% DMSO.
For assay [3], the target named is T3, BACE2 (Homo sapiens, UniProt Q9Y5Z0).
T3 construct: BACE2 enzyme ectodomain (derived from plasmid “pET17b-T7-hu proBACE2”); T7 (N); made in house
T3 sequence (Q9Y5Z0 63-473 limits assumed): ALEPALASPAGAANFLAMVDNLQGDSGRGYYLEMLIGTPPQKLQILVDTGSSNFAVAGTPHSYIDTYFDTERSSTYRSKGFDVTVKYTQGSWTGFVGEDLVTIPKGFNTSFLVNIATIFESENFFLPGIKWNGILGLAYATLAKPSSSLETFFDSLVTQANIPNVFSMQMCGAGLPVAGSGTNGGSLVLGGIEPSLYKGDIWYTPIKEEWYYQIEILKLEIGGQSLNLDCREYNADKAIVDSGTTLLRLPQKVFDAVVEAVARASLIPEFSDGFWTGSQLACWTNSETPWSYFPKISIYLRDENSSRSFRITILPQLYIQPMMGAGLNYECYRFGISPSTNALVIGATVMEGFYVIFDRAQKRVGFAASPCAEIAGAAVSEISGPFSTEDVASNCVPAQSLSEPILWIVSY
As to the kind of experiment: Assay A: binding studies using SPR based methods, immobilised BACE2. The conditions noted are these: CM5 chip, immobilised BACE2 enzyme ectodomain, acetate buffer pH 4.6, 4% DMSO. (SPR reads the build-up and loss of mass on a sensor chip optically.)

The target of assay [4] is T2, BACE1. In words: Cellular Abeta-lowering assay. Type of assay: cell-based. More on the design: endogenous in cells; host or cells: HEK293 stably transfected with human APP695 wt. The conditions noted are these: HEK293 cells stably transfected with human APP wt (APP695), Aβ40 ELISA of supernatant after 18-20 hrs.

T2 sequence (P56817 46-501): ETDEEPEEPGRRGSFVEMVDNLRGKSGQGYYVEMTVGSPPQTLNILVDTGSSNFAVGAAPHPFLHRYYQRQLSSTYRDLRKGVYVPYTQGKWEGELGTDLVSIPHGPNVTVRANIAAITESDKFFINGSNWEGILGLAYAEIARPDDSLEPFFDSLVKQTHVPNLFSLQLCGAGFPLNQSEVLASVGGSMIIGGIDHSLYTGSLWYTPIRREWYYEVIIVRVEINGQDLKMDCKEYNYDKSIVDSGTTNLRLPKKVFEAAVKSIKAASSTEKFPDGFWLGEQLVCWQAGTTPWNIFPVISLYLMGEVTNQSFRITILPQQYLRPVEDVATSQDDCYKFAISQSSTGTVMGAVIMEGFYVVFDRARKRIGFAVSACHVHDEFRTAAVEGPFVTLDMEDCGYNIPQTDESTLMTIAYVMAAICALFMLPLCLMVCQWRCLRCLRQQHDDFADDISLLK

As a reminder, the IC50 is the midpoint of a concentration-inhibition curve. By Kd is commonly meant the equilibrium constant for the complex coming apart. Higher therefore signals a looser complex. In the case of `C[C@@]1(c2cc(NC(=O)c3ncc(C(F)(F)F)cc3Cl)ccc2F)COCC(N)=N1` [Example 38, 3-chloro-5-trifluoromethyl-pyridine-2-carboxylic acid [3-((R)-5-amino-3-methyl-3,6-dihydro-2H-[1,4]oxazin-3-yl)-4-fluoro-phenyl]-amide], the half-inhibitory concentration (IC50) against BACE2 [1] came to 0.044 µM; against BACE1 [4], 0.021 µM. In addition, the dissociation constant Kd at BACE1 [2] came out at 0.039 µM; at BACE2 [3], 0.032 µM.
Regarding `CC1(c2cccc(NC(=O)c3cccc(Cl)c3)c2)COCC(N)=N1` (racemic) [Example 6, (RS)—N-[3-(5-amino-3-methyl-3,6-dihydro-2H-[1,4]oxazin-3-yl)-phenyl]-3-chloro-benzamide], the figures for the half-maximal inhibitory concentration (IC50) at BACE2 [1] and against BACE1 [4] were 0.66 µM and 1.53 µM, respectively. Further, the equilibrium dissociation constant (Kd) worked out at 6.9 µM at BACE1 [2] and 0.23 µM on BACE2 [3].
Regarding `CC1(c2cc(NC(=O)c3ccc(Cl)cc3)ccc2F)COCC(N)=N1` (racemic) [Example 19, (RS)—N-[3-(5-amino-3-methyl-3,6-dihydro-2H-[1,4]oxazin-3-yl)-4-fluoro-phenyl]-4-chloro-benzamide], the IC50 was 0.837 µM at BACE2 [1] and 0.13 µM against BACE1 [4]. Besides, the figures for the dissociation constant Kd on BACE1 [2] and on BACE2 [3] were 0.394 µM and 0.098 µM, respectively.
The corresponding values for `C[C@@]1(c2cc(NC(=O)c3cnc(C(F)(F)F)cn3)ccc2F)COCC(N)=N1` [Example 82, 5-trifluoromethyl-pyrazine-2-carboxylic acid [3-((R)-5-amino-3-methyl-3,6-dihydro-2H-[1,4]oxazin-3-yl)-4-fluoro-phenyl]-amide formate] are 0.14 µM, 0.046 µM, 0.129 µM and 0.113 µM.
